Data on two compounds can be found in US20250082656A1, “DOSAGE REGIMENS FOR TREATMENT OF DENGUE INFECTION” (Atea Pharmaceuticals, Inc., priority 2022, published 2025).

The subject of one data set is DENV-4. Put plainly: Antiviral assay with FC read-out, DENV-4. In kind it is cell-based. Conditions: Dengue virus, DENV4; DENV-4 TVP-360, Huh-7, FC read-out.
Data set [1] in a line: In vivo formation of AT-9010 in PBMCs, monkeys. On the set-up: species or system cynomolgus monkeys. Conditions: single oral Compound 2 equivalent to 55 mg/kg Compound 1, 12 h. Here is the method:
(§1) Monkeys were given an oral dose of Compound 2 (AT-752) equivalent to Compound 1 (AT-281) at 55 mg/kg and blood collected at 12, 24 and 48 h. […] Mouse PBMCs were pooled from 3 animals per time point; Rat and monkey data expressed as mean+/−SD (n=2-3 per time point). […] The experimental procedure is provided in Example 15.
Male non-naïve cynomolgus monkeys (Hainan Jingang Laboratory Animal Co. Ltd., China), at least 2 kg body weight, were individually housed during the study in stainless steel mesh cages, provided ad libitum access to RO water, fed twice daily (except on the day of dosing when they were fed once) with ˜60 g Certified Monkey Diet each feed (Beijing Vital Keao Feed Co., Ltd., Beijing, China) and given daily treats of fresh fruit. They (n=5) were administered a dose of Compound 2 (AT-752) at 300 mg/kg in 40% PEG400, 10% solutol HS15, 50% 100 mM citrate buffer, pH 4.5 (v/v) by oral gavage, and blood samples (˜0.5 mL) were collected at 1, 2, 4, 8, 12 and 24 h post dose. Plasma was separated at each time point for pharmacokinetics, and stored at −70° C. […]
Pharmacokinetic measurements for FIGS. 11, 12, 13, 14, and 15 were analyzed using LC-MS/MS according to the protocol described herein. […]

In data set [2] the test system is NS5 RNA dependent RNA polymerase (RdRp). As to the kind of experiment: Competitive nucleotide incorporation assays, all four DENV serotypes (summary). In kind it is biochemical, Dengue virus. Conditions: approximately. Here is the method: As described in Example 10 and shown in FIG. 1, the active metabolite of Compound 2 or Compound 1 (Compound 5) acts as a GTP analog and is incorporated into RNA by the NS5 RNA dependent RNA polymerase (RdRp), immediately terminating synthesis.
The chain-terminating efficiency of Compound 5 was measured in competitive nucleotide incorporation assays using all four DENV serotypes. […] In comparison, sofosbuvir triphosphate is incorporated into the RNA less than 1 time for every 100 UTP (native uridine triphosphate) incorporations.

Another data set has as its target DENV2 NS5MTase protein (Dengue virus type 2, UniProt P14340). As to the kind of experiment: MTase activity filter-binding assay (FBA). Format: biochemical. As to conditions: 30° C., 30 min, read-out: IC50 against the MTase domain. As to the method:
A) Dose-response determination using a filter binding assay (FBA). Reactions were incubated at 30° C. during 30 min and the enzymatic activity was determined using FBA as described in Example 33. […] Interacting residues are labelled and shown as sticks. E) Structural comparison of the position of a GTP (pink) and AT9010 (light brown) bound in the Cap binding site. Cap binding site structures belong to DENV2 (in pink—PDB 2P1D)) and DENV3 (in light brown) MTases and are conserved.
The transfer of tritiated methyl from [3H]-SAM onto RNA substrate was monitored by filter-binding assay (FBA), performed according to the method described previously (Paesen et al., 2015). […] FBA was carried out in reaction mixture [40 mM Tris-HCl (pH 8.0), 1 mM DTT, 2 μM SAM and 0.1 μM 3H-SAM (Perkin Elmer)] in the presence of 0.7 μM mGpppAC4 synthetic RNA and DENV2 NS5MTase protein (500 nM). The enzyme was first mixed with the compound (0.5 to 1000 μM) suspended in water before the addition of RNA substrate and SAM and then incubated at 30° C. Reaction mixtures were stopped after 30 min by their 10-fold dilution in ice-cold water. […] They were soaked with scintillation fluid (Perkin Elmer), and 3H-methyl transfer to the RNA substrates was determined using a Wallac MicroBeta TriLux Liquid Scintillation Counter (Perkin Elmer). […]

A short description of data set [3]: In vivo formation of AT-9010 in PBMCs, rats. As to conditions: single oral dose 300 mg/kg, 24 h. Set-up: species or system SD rats. As to the method: as §1
Male naïve SD rats (Beijing Vital River Laboratory Animals Co. Ltd., China) were administered a dose of AT-752 at 300 mg/kg in 40% PEG400, 10% solutol HS15, 50% 100 mM citrate buffer, pH 4.5 (v/v) by oral gavage. Blood samples (n=4) were collected at 1, 2, 4, 8, 12 and 24 h post-dose, plasma separated and stored at −70° C. […] For PBMCs, nine male naïve SD rats were administered a dose of Compound 2 (AT-752) (at a Compound 1 (AT-281) equivalent dose of 300 mg/kg) by oral gavage.
Pharmacokinetic measurements for FIGS. 11, 12, 13, 14, and 15 were analyzed using LC-MS/MS according to the protocol described herein. Plasma samples were prepared for MS analysis by adding internal standards and extracting with 20 volumes chilled ACN. After vortex (800 rpm for 10 min) and centrifugation (4,000 rpm, 15 min, 4° C.), the supernatants (25 μL) were diluted with an equal volume of H2O, mixed and spun again. […]

Sequence of DENV2 NS5MTase protein (P14340 2492-2787 limits assumed): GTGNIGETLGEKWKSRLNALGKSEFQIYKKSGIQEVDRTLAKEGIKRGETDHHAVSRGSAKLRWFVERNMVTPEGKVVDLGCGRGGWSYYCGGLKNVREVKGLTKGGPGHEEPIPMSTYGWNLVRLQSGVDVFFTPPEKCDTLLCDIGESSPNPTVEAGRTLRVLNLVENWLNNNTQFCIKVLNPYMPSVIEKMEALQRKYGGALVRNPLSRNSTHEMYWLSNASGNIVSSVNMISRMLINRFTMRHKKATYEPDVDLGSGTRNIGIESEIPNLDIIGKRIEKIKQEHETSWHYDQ

One may read the EC50 as the concentration at which the effect is half-maximal. For the compound `CNc1nc(N)nc2c1ncn2[C@@H]1O[C@H](CO[P@](=O)(N[C@@H](C)C(=O)OC(C)C)Oc2ccccc2)[C@@H](O)[C@@]1(C)F` [Compound 1, isopropyl ((R)-(((2R,3R,4R,5R)-5-(2-amino-6-(methylamino)-9H-purin-9-yl)-4-fluoro-3-hydroxy-4-methyltetrahydrofuran-2-yl)methoxy)(phenoxy)phosphoryl)-L-alaninate], in the data set on DENV-4, the EC50 was 1.19 µM.

A word on the IC50: it is the concentration at which inhibition is half-maximal. On to `C[C@@]1(F)[C@H](O)[C@@H](COP(=O)(O)OP(=O)(O)OP(=O)(O)O)O[C@H]1n1cnc2c(=O)[nH]c(N)nc21` [Compound 5], for which the figures for the “concentration of AT-9010 in PBMCs” value in data set [1] and in data set [3] were 0.070±0.046 pmol/10^6 cells and 0.439±0.218 pmol/10^6 cells, respectively. Besides, the “GTPs incorporated for one AT-9010 incorporated” value in data set [2] was 7-8. In addition, the concentration for half-maximal inhibition (IC50) on DENV2 NS5MTase protein is 29.6 µM.
